# Experiments:
# [1] = system: M. hyorhinis BST-7; assay: Anti-Mycoplasma activity, twofold agar-dilution method; format: cell-based; conditions: Mesomycoplasma hyorhinis, BST7, 72 h, Chanock agar, 37° C., 3 days aerobically, calculated for free base, read-out: minimum inhibitory concentration (MIC)
# Method: (§1) The numbers in the table show minimum inhibitory concentrations (MIC) (μg/ml), calculated for free base. The minimum inhibitory concentration was determined by the twofold agar-dilution method using Chanock agar. Three μl of a culture of test organisms in Chanock broth was inoculated onto 10-ml drug-containing agar layers in petri dishes. Growth of Mycoplasma was observed after incubation at 37° C. under the conditions shown hereinbelow. The MIC was defined as the lowest drug concentration which prevented growth of Mycoplasma microscopically.
# [2] = system: M. salivarium; assay: as above; format: cell-based; conditions: 48 h, read-out: minimum inhibitory concentration (MIC)
# Method: as §1
# [3] = system: M. buccale CH-20247; assay: as above; format: cell-based; conditions: 48 h, Chanock agar, 37° C., 2 days anaerobically, calculated for free base, read-out: minimum inhibitory concentration (MIC)
# Method: as §1
# [4] = system: M. fermentans PG-18; assay: as above; format: cell-based; conditions: Mycoplasmopsis fermentans, PG18, 48 h, Chanock agar, 37° C., 2 days anaerobically, calculated for free base, read-out: minimum inhibitory concentration (MIC)
# Method: as §1
# [5] = system: M. bovis P-7101; assay: microbe, parasite or virus in culture; format: cell-based; conditions: Mycobacterium tuberculosis variant bovis, P7101, 20 h, read-out: minimum inhibitory concentration (MIC)
# [6] = system: A. laidlawii PG-8; assay: Anti-Mycoplasma activity, twofold agar-dilution method; format: cell-based; conditions: Acholeplasma laidlawii, PG8, 48 h, Chanock agar, 37° C., 2 days aerobically, calculated for free base, read-out: minimum inhibitory concentration (MIC)
# Method: as §1
# (§2) Mycoplasma arginini and Acholeplasma laidlawii
# [7] = system: M. arginini G-230; assay: as above; format: cell-based; conditions: Mycoplasmopsis arginini, G230, 48 h, Chanock agar, 37° C., 2 days aerobically, calculated for free base, read-out: minimum inhibitory concentration (MIC)
# Method: as §1, §2
# [8] = system: B. subtilis PCI 219; assay: In vitro antibacterial activity, twofold agar-dilution method; format: cell-based; conditions: Bacillus subtilis, PCI219; B. subtilis PCI 219 (Gram +); Mueller-Hinton agar, 20 h, 37° C.; calculated for free base; read-out: minimum inhibitory concentration (MIC)
# Method: (§3) The numbers in the table show minimum inhibitory concentrations (MIC) (μg/ml), calculated for free base. The minimum inhibitory concentration was determined by the twofold agar-dilution method, which was recommended by Japan Society of Chemotherapy (Chemotherapy, 29(1), 76(1981)), using Muller-Hinton agar. One loopful of an overnight culture of test organisms in Mueller-Hinton broth was inoculated onto 10-ml drug-containing agar layers in petri dishes. Bacterial inocula contained approximately 10^6 colonyl-formingunits. Bacterial growth was observed after 20-hour incubation at 37° C. The MIC was defined as the lowest drug concentration which prevented visible bacterial growth.
# [9] = system: E. coli P-51213; assay: as above; format: cell-based; conditions: Escherichia coli, P51213; E. coli P-51213 (Gram -); Mueller-Hinton agar, 20 h, 37° C.; calculated for free base; read-out: minimum inhibitory concentration (MIC)
# Method: as §3
# [10] = system: S. aureus No. 80; assay: as above; format: cell-based; conditions: Staphylococcus aureus; S. aureus No. 80 (Gram +); Mueller-Hinton agar, 20 h, 37° C.; calculated for free base; read-out: minimum inhibitory concentration (MIC)
# Method: as §3
# [11] = system: Al. faecalis P-7001; assay: as above; format: cell-based; conditions: Alcaligenes faecalis, P7001; Al. faecalis P-7001 (Gram -); Mueller-Hinton agar, 20 h, 37° C.; calculated for free base; read-out: minimum inhibitory concentration (MIC)
# Method: as §3
# [12] = system: S. epidermidis No. 8; assay: as above; format: cell-based; conditions: Staphylococcus epidermidis; S. epidermidis No. 8 (Gram +); Mueller-Hinton agar, 20 h, 37° C.; calculated for free base; read-out: minimum inhibitory concentration (MIC)
# Method: as §3
# [13] = system: P. aeruginosa No. 12; assay: as above; format: cell-based; conditions: Pseudomonas aeruginosa; P. aeruginosa No. 12 (Gram -); Mueller-Hinton agar, 20 h, 37° C.; calculated for free base; read-out: minimum inhibitory concentration (MIC)
# Method: as §3
# [14] = system: Ac. calcoaceticus P-6901; assay: as above; format: cell-based; conditions: Acinetobacter calcoaceticus, P6901; Ac. calcoaceticus P-6901 (Gram -); Mueller-Hinton agar, 20 h, 37° C.; calculated for free base; read-out: minimum inhibitory concentration (MIC)
# Method: as §3
# [15] = system: S. aureus 209P JC-1; assay: as above; format: cell-based; conditions: Staphylococcus aureus; S. aureus 209P JC-1 (Gram +); Mueller-Hinton agar, 20 h, 37° C.; calculated for free base; read-out: minimum inhibitory concentration (MIC)
# Method: as §3
# [16] = system: S. aureus No. 50774; assay: as above; format: cell-based; conditions: Staphylococcus aureus; S. aureus No. 50774 (Gram +); Mueller-Hinton agar, 20 h, 37° C.; calculated for free base; read-out: minimum inhibitory concentration (MIC)
# Method: as §3
# [17] = system: male mice (ddY); assay: Acute oral toxicity in mice; conditions: conclusion in words from Table 5
# Method: (§4) A solution containing each of compounds 1, 2 and 3 of this invention in various concentrations was orally given to male mice (ddY) at a dose of 0.1 ml per 10 g of body weight. The number of dead mice was counted after 7 days, and the value of median lethal dose (LD50, mg/kg) was calculated in accordance with the Behrens-Kaerber method.
# [18] = Acute oral toxicity in mice; conditions: mouse, in vivo, po
# Method: as §4
# [19] = system: Pseudomonas aeruginosa 12; assay: In vivo efficacy against systemic infections in mice; design: species or system Pseudomonas aeruginosa; male mice (ddY-S); conditions: Pseudomonas aeruginosa, 12, 168 h, oral, intraperitoneal infection about 5×10^3 cells, 4% mucin, twice, immediately and 6 h after infection, 7 days, calculated for free base, read-out: median effective dose (ED50)
# Method: Compounds were each dissolved in deionized water. Each of the solutions was orally administered to mice infected with each of the test organisms under the conditions shown hereinbelow, and the median effective dose (ED50) was calculated by probit analysis. The numerals in the table show ED50 (mg/kg) value, calculated for free base.
# Mice: Male mice (ddY-S) weighing about 20 g
# Pseudomonas aeruginosa 12
# Intraperitoneal infection with about 5×10^3 cells per mouse suspended in tryptosoy broth with 4% mucin.
# Four times, immediately, 6, 24 and 30 hours after infection in case of Streptococcus pneumoniae 1 Neufeld. Twice, immediately and 6 hours after infection in case of other organisms.
# For 14 days in case of Staphylococcus aureus 50774 and Streptocuccus pneumoniae 1 Neufeld. For 7 days in case of other organisms.
compound,measurement,setting,value
"CC1CN(c2c(F)c(N)c3c(=O)c(C(=O)O)cn(C4CC4)c3c2F)CCN1 (stereo not shown) [Compound 1, 5-Amino-1-cyclopropyl-6,8-difluoro-7-(3-methyl-1-piperazinyl)-1,4-dihydro-4-oxoquinoline-3-carboxylic acid]",MIC,[1],0.2 µg/mL
same,MIC,[2],0.2 µg/mL
same,MIC,[3],0.0125 µg/mL
same,MIC,[4],0.0063 µg/mL
same,MIC,[5],0.2 µg/mL
same,MIC,[6],0.1 µg/mL
same,MIC,[7],0.1 µg/mL
same,MIC,[8],0.05 µg/mL
same,MIC,[9],0.025 µg/mL
same,MIC,[10],0.0125 µg/mL
same,MIC,[11],0.1 µg/mL
same,MIC,[12],0.025 µg/mL
same,MIC,[13],0.1 µg/mL
same,MIC,[14],0.0125 µg/mL
same,MIC,[15],0.025 µg/mL
same,MIC,[16],0.0125 µg/mL
same,oral toxicity,[17],low oral toxicity
same,LD50 at 168 h,[18],> 2000 mg/kg
same,ED50,[19],1.11 mg/kg

# Source: patent US4795751A, “5-substituted-6,8-difluoroquinolines useful as antibacterial agents” (Dainippon Pharmaceutical Co., Ltd., priority 1985, dated 1989)
